Blank lines part the entries; values can stand above or below the compound they belong to. Calls of active or inactive are those of the source. No cut-off for these calls is given here.
Experiments:
[1] = tested on: 786-0; assay: Inhibition of RSL3-induced ferroptosis in human 786-0 cells assessed as cell viability incubated for 24 hrs by CellTiter-LumiTM assay; type: functional, cell-based; details: 786-0, 24 h
[2] = tested on: 786-0; assay: Inhibition of RSL3-induced ferroptosis in human 786-0 cells assessed as cell protection by assessing cell morphology at 1 uM incubated for 24 hrs; type: functional, cell-based
[3] = tested on: SK-HEP1; assay: Inhibition of RSL3 induced lipid-ROS accumulation in human SK-HEP1 cells at 1 uM incubated for 2.5 hrs by C11-BODIPY 581/591 staining coupled with flow cytometry analysis; type: functional, cell-based
[4] = Antioxidant activity assessed as free radical scavenging activity at 50 uM incubated for 30 mins in dark by DPPH assay relative to control; type: functional
[5] = tested on: SK-HEP1; assay: Inhibition of RSL3 induced lipid-ROS accumulation in human SK-HEP1 cells at 1 uM incubated for 0.5 hrs by C11-BODIPY 581/591 staining coupled with flow cytometry analysis; type: functional, cell-based
[6] = Suppression of autoxidation of liposomes egg ( unknown origin) phosphatidylcholine lipids as substrate at 0.1 to 2.5 uM incubated for 5 min by C11-BODIPY 581/591 dye based fluorescent assay; type: functional; details: dose 0.1-2.5 µM
[7] = tested on: HT-1080; assay: Anti-ferroptotic activity in human GPX4 knockout HT-1080 cells assessed as cell viability at 1 uM incubated for 24 hrs by CellTiter-LumiTM plus luminescent cell viability assay; type: functional, cell-based
[8] = tested on: 786-0; assay: Inhibition of RSL3 induced lipid-ROS accumulation in human 786-0 cells incubated for 2.5 hrs by C11-BODIPY 581/591 staining coupled with flow cytometry analysis; type: functional, cell-based; details: dose 0.1-1 µM
[9] = tested on: 786-0; assay: Inhibition of RSL3 induced lipid-ROS accumulation in human 786-0 cells assessed as fast elimination at 1 uM measured after 0.25 to 2.5 hrs by C11-BODIPY 581/591 staining coupled with flow cytometry analysis; type: functional, cell-based; details: time 0.25-2.5 hrs
[10] = tested on: 786-0; assay: Inhibition of RSL3-induced ferroptosis in human 786-0 cells assessed as cell viability by assessing cell morphology incubated for 24 hrs by CellTiter-LumiTM plus luminescent cell viability assay; type: functional, cell-based; details: 786-0, 24 h
[11] = Inhibition of RSL3 induced ferroptosis in human SK-HEP1 cells assessed as cell viability incubated for 24 hrs by CellTiter-LumiTM assay; type: functional, cell-based; details: SK-HEP1, 24 h
[12] = tested on: 786-0; assay: Effect on FTH1 expression in human 786-0 cells at 1 uM incubated for 2.5 hrs by western blot analysis; type: functional, cell-based
[13] = tested on: 786-0; assay: Effect on erastin-induced decrease in GSH level in human 786-0 cells at 1 uM incubated for 10 hrs by Total intracellular GSH assay; type: functional, cell-based
[14] = tested on: 786-0; assay: Effect on FTL expression in human 786-0 cells at 1 uM incubated for 2.5 hrs by western blot analysis; type: functional, cell-based
[15] = tested on: 786-0; assay: Effect on SLC7A11 expression in human 786-0 cells at 1 uM incubated for 2.5 hrs by Western blot analysis; type: functional, cell-based
[16] = tested on: 786-0; assay: Inhibition of H2O2 induced necrosis in human 786-0 cells assessed as cell viability at 1 uM incubated for 24 hrs by CellTiter-LumiTM assay; type: functional, cell-based
[17] = tested on: 786-0; assay: Effect on IRP1 expression in human 786-0 cells in presence of 0.25 uM RSL3 at 1 uM incubated for 2.5 hrs by Western blot analysis; type: functional, cell-based
[18] = Inhibition of erastin induced ferroptosis in human 786-0 cells assessed as cell viability incubated for 24 hrs by CellTiter-LumiTM assay; type: functional, cell-based; details: 786-0, 24 h
[19] = tested on: 786-0; assay: Effect on FTH1 expression in human 786-0 cells in presence of 0.25 uM RSL3 at 1 uM incubated for 2.5 hrs by Western blot analysis; type: functional, cell-based
[20] = Inhibition of RSL3 induced ferroptosis in human MHCC97H cells assessed as cell viability incubated for 24 hrs by CellTiter-LumiTM assay; type: functional, cell-based
[21] = Inhibition of RSL3 induced ferroptosis in human HT-1080 cells assessed as cell viability incubated for 24 hrs by CellTiter-LumiTM assay; type: functional, cell-based; details: HT-1080, 24 h
[22] = tested on: 786-0; assay: Inhibition of RSL3 induced ferroptosis in human 786-0 cells assessed as cell viability in presence of iFSP1 at 1 uM measured after 24 hrs by CellTiter-LumiTM assay; type: functional, cell-based
[23] = tested on: 786-0; assay: Cytotoxicity against human 786-0 cells assessed as cell viability incubated for 24 hrs by CellTiter-LumiTM assay; type: functional
[24] = tested on: 786-0; assay: Effect on GPX4 expression in human 786-0 cells at 1 uM incubated for 2.5 hrs by Western blot analysis; type: functional, cell-based
[25] = tested on: 786-0; assay: Inhibition of STS induced apoptosis in human 786-0 cells assessed as cell viability at 1 uM incubated for 24 hrs by CellTiter-LumiTM assay; type: functional, cell-based
[26] = tested on: 786-0; assay: Effect on TFRC expression in human 786-0 cells at 1 uM incubated for 2.5 hrs by Western blot analysis; type: functional, cell-based
[27] = tested on: 786-0; assay: Effect on FTL expression in human 786-0 cells in presence of 0.25 uM RSL3 at 1 uM incubated for 2.5 hrs by Western blot analysis; type: functional, cell-based
[28] = tested on: 786-0; assay: Metal chelating activity assessed as Fe2+ chelation in human 786-0 cells assessed as intracellular ferrous ion level at 1 uM by FerroOrange fluorescent probe based assay; type: cell-based
[29] = Antioxidant activity assessed as free radical scavenging activity incubated for 30 mins in dark by DPPH assay relative to control; type: functional
[30] = tested on: 786-0; assay: Effect on ACSL4 expression in human 786-0 cells at 1 uM incubated for 2.5 hrs by Western blot analysis; type: functional, cell-based
[31] = tested on: 786-0; assay: Effect on IRP1 expression in human 786-0 cells at 1 uM incubated for 2.5 hrs by western blot analysis; type: functional, cell-based
[32] = tested on: 786-0; assay: Effect on TFRC expression in human 786-0 cells in presence of 0.25 uM RSL3 at 1 uM incubated for 2.5 hrs by Western blot analysis; type: functional, cell-based
[33] = Inhibition of RSL3 induced ferroptosis in H9c2 cells assessed as cell viability incubated for 24 hrs by CellTiter-LumiTM assay; type: functional, cell-based; details: Rattus norvegicus, H9c2, 24 h
[34] = Metabolic stability in human plasma assessed as half life at 1 uM by LC-MS/MS analysis; type: ADME, cell-free

EC50 [1]: 140 nM
SMILES: COc1cccc(C2N(c3ccccc3)N=C(C(C)=O)N2c2ccc(N(C)C)cc2)c1OCc1ccc(F)cc1 (configuration not stated)
Activity [2]: Active

EC50 [1]: 100 nM
SMILES: COc1cccc(C2N(c3ccccc3)N=C(C(C)=O)N2c2ccc(N(C)C)cc2)c1OCc1ccc(Br)cc1 (configuration not stated)
Activity [2]: Active

EC50 [1]: 190 nM
SMILES: COc1cccc(C2N(c3ccccc3)N=C(C(C)=O)N2c2ccc(N(C)C)cc2)c1OCc1cccc(Cl)c1 (configuration not stated)
Activity [2]: Active

EC50 [1]: 260 nM
SMILES: COc1cccc(C2N(c3ccccc3)N=C(C(C)=O)N2c2ccc(N(C)C)cc2)c1OCc1ccc(Cl)cc1Cl (configuration not stated)
Activity [2]: Active

EC50 [1]: 150 nM
SMILES: COc1cccc(COc2c(OC)cccc2C2N(c3ccccc3)N=C(C(C)=O)N2c2ccc(N(C)C)cc2)c1 (configuration not stated)
Activity [2]: Active

EC50 [1]: 330 nM
SMILES: COc1cccc(C2N(c3ccccc3)N=C(C(C)=O)N2c2ccc(N(C)C)cc2)c1OCc1ccc(F)c(Cl)c1 (configuration not stated)

EC50 [1]: 120 nM
SMILES: COc1cccc(C2N(c3ccccc3)N=C(C(C)=O)N2c2ccc(N(C)C)cc2)c1OCc1cccc(Br)c1 (configuration not stated)
Activity [2]: Active

EC50 [1]: 150 nM
SMILES: COc1cccc(C2N(c3ccccc3)N=C(C(C)=O)N2c2ccc(N(C)C)cc2)c1OCc1ccccc1Cl (configuration not stated)
Activity [2]: Active

EC50 [1]: 150 nM
SMILES: COc1cccc(C2N(c3ccccc3)N=C(C(C)=O)N2c2ccc(N(C)C)cc2)c1OCc1ccccc1C#N (configuration not stated)
Activity [2]: Active

EC50 [1]: 190 nM
SMILES: COc1cccc(C2N(c3ccccc3)N=C(C(C)=O)N2c2ccc(N(C)C)cc2)c1OCc1cccc2ccccc12 (configuration not stated)
Activity [2]: Active

EC50 [1]: 130 nM
SMILES: COc1cccc(C2N(c3ccccc3)N=C(C(C)=O)N2c2ccc(N(C)C)cc2)c1OCc1ccc(C)cc1 (configuration not stated)
Activity [2]: Active

EC50 [1]: 120 nM
SMILES: COc1cccc(C2N(c3ccccc3)N=C(C(C)=O)N2c2ccc(N(C)C)cc2)c1OCc1ccc(Cl)cc1 (configuration not stated)
Activity [2]: Active

EC50 [1]: 390 nM
SMILES: CC(=O)C1=NN(c2ccccc2)C(c2ccccc2OCc2ccc(Cl)cc2Cl)N1c1ccc(N(C)C)cc1 (configuration not stated)
Activity [2]: Active

Second part, the compound before the results:

SMILES: COc1cccc(C2N(c3ccccc3)N=C(C(C)=O)N2c2ccc(N(C)C)cc2)c1OCc1ccc(C#N)cc1 (configuration not stated)
EC50 [1]: 150 nM
Activity [2]: Active

SMILES: Clc1cccc(CNC2=Nc3ccccc3NC23CCNCC3)c1
inhibition [3]: Active
Activity [4]: Active
inhibition [5]: Active

SMILES: COc1cccc(C2N(c3ccccc3)N=C(C(C)=O)N2c2ccc(N(C)C)cc2)c1OCc1ccc(C(C)(C)C)cc1 (configuration not stated)
EC50 [1]: 870 nM

SMILES: COc1cccc(C2N(c3ccccc3)N=C(C(C)=O)N2c2ccc(N(C)C)cc2)c1OCc1c(F)cccc1F (configuration not stated)
EC50 [1]: 120 nM
Activity [2]: Active

SMILES: COc1cc(COc2c(OC)cccc2C2N(c3ccccc3)N=C(C(C)=O)N2c2ccc(N(C)C)cc2)cc(OC)c1OC (configuration not stated)
EC50 [1]: 170 nM

SMILES: COc1ccc(COc2c(OC)cccc2C2N(c3ccccc3)N=C(C(C)=O)N2c2ccc(N(C)C)cc2)cc1OC (configuration not stated)
EC50 [1]: 300 nM

SMILES: CC(=O)C1=NN(c2ccccc2)C(c2cc(C)c(OCc3ccc(Cl)cc3Cl)c(C)c2)N1c1ccc(N(C)C)cc1 (configuration not stated)
EC50 [1]: 150 nM

SMILES: CC(=O)C1=NN(c2ccccc2)C(c2cccc(C)c2OCc2ccc(Cl)cc2Cl)N1c1ccc(N(C)C)cc1 (configuration not stated)
EC50 [1]: 1230 nM
Activity [2]: Active

SMILES: CC(=O)C1=NN(c2ccccc2)C(c2ccc(C)cc2OCc2ccc(Cl)cc2Cl)N1c1ccc(N(C)C)cc1 (configuration not stated)
EC50 [1]: 710 nM
Activity [2]: Active

SMILES: COc1cccc(C2N(c3ccccc3)N=C(C(C)=O)N2c2ccc(N(C)C)cc2)c1OCc1c(C)cc(C)cc1C (configuration not stated)
EC50 [1]: 360 nM

SMILES: COc1cccc(C2N(c3ccccc3)N=C(C(C)=O)N2c2ccc(N(C)C)cc2)c1OCc1cc(Cl)cc(Cl)c1 (configuration not stated)
EC50 [1]: 3710 nM
Activity [2]: Active

SMILES: CC(=O)C1=NN(c2ccccc2)C(c2cc(C)ccc2OCc2ccc(Cl)cc2Cl)N1c1ccc(N(C)C)cc1 (configuration not stated)
EC50 [1]: 680 nM
Activity [2]: Active

SMILES: Cc1c(C)c2c(c(C)c1O)CCC(C)(C(=O)O)O2 (configuration not stated)
Activity [4]: Active
Activity [6]: Dose-dependent-effect

SMILES: COc1cc(COc2c(OC)cccc2C2N(c3ccccc3)N=C(C(C)=O)N2c2ccc(N(C)C)cc2)ccc1F (configuration not stated)
EC50 [1]: 170 nM

SMILES: COc1cccc(C2N(c3ccccc3)N=C(C(C)=O)N2c2ccc(N(C)C)cc2)c1OCc1c(C)cccc1C (configuration not stated)
EC50 [1]: 150 nM
Activity [2]: Active

SMILES: CCOC(=O)c1ccc(NC2CCCCC2)c(N)c1
inhibition [3]: Active
Activity [7]: Active
inhibition [8]: Dose-dependent-effect
inhibition [9]: Active
EC50 [10]: 67 nM
Activity [4]: Active
inhibition [5]: Active

SMILES: COC(=O)c1ccc(COc2c(OC)cccc2C2N(c3ccccc3)N=C(C(C)=O)N2c2ccc(N(C)C)cc2)cc1 (configuration not stated)
inhibition [3]: Active
EC50 [11]: 128 nM
Activity [12]: inactive
EC50 [1]: 70 nM
Activity [7]: Active
Activity [13]: inactive
inhibition [8]: Dose-dependent-effect
Activity [14]: inactive
Activity [15]: inactive
inhibition [16]: inactive
Activity [17]: inactive
inhibition [9]: Active; Eliminated As Fast As Fer-1
EC50 [18]: 52 nM
Activity [19]: inactive
EC50 [20]: 635 nM
EC50 [21]: 317 nM
inhibition [22]: Active
CC50 [23]: > 40000 nM
EC50 [10]: 91 nM
Activity [24]: inactive
Activity [6]: Dose-dependent-effect
inhibition [25]: inactive
Activity [2]: Active
Activity [26]: inactive
Activity [27]: inactive
Activity [28]: inactive
Activity [29]: Active
Activity [30]: inactive
Activity [31]: inactive
Activity [32]: inactive
inhibition [5]: Active
EC50 [33]: 171 nM

SMILES: CC(C)[N+](C)(CCOC(=O)C1c2ccccc2Oc2ccccc21)C(C)C [PROPANTHELINE]
half-life at 1 µM [34]: 27.9 min

SMILES: COc1cccc(C2N(c3ccccc3)N=C(C(C)=O)N2c2ccc(N(C)C)cc2)c1OCc1ccc(C(F)(F)F)cc1 (configuration not stated)
EC50 [1]: 80 nM
Activity [2]: Active

Reference: ChEMBL document CHEMBL6120996, “Discovery and optimization of 1,2,4-triazole derivatives as novel ferroptosis inhibitors” (Eur J Med Chem, 2025)
